In patent publication US20260373165A1, “PHARMACEUTICAL COMBINATIONS AND COMPOSITIONS, AND METHODS OF USE THEREOF” (SHENZHEN HIGHTIDE BIOPHARMACEUTICAL LTD., priority 2022, published 2026):

Key:
Format in all cases: in vivo, mouse (C57BL/6J male, 60% HFD DIO)
[1] = Example 1: body weight and body weight change rate, combined administration of HTD1801 and empagliflozin in DIO obesity model; conditions: semaglutide 10 nmol/kg s.c. Q3D
Description: (§1) After 5-week-old C57BL/6J male mice were acclimatized for 1 week, the weight of each mouse was weighed, and the mice were randomly divided into a control group and a model group by taking the weight as a main index, where 12 mice in the control group were fed with common feed (CD), and the mice in the remaining model group were fed with 60% high-fat feed (60% HFD) for 10-12 weeks to construct a DIO obesity model, with the average body weight being not less than 40 g. The mice fed with 60% HFD were grabbed and acclimatized with a solvent for 3 days, where the acclimatization with a solvent was performed by oral gavage of 0.5% CMC-Na, twice daily.
(§2) The food intake, the body weight, the body fat ratio, and the insulin level of the mice were respectively measured, followed by fasting blood glucose level, and the mice were randomly grouped according to Table 3 by taking the body weight as an index, and the remaining ungrouped mice were euthanized. After grouping, each group of mice was administered according to Table 3, the day of administration was defined as DO, and the administration volume of each drug was determined based on the results obtained by the calculation of 5 μL/g× mouse body weight (g).
(§3) For the combined administration group, the total administration volume was the sum of the administration volumes of two single drugs, and the administration sequence and the administration time were kept consistent at each administration. The mice were continuously fed with high-fat feed during the administration period until the administration was finished. During administration, 2 food intakes were measured per week (difference in feed weights at an interval of 24 h was measured); each group of mice was weighed once daily; postprandial blood glucose levels were measured weekly; blood was collected from the tail tip on day 6 and day 20, respectively, so as to measure fasting blood glucose levels once (blood was collected after fasting from 8:00 am to […]); on day 25 of administration, the body fat ratio and the lean mass of each group of mice were measured by MRI (the measurement period was kept consistent with that before grouping); after 4 weeks of administration intervention (day 28), each group of mice was fasted for 6 h and subjected to OGTT (0 min, 15 min, 30 min, 60 min, 90 min, 120 min) to detect their blood glucose levels, and meanwhile subjected to blood sampling via submaxillary vein (0 min, 15 min, 30 min, about 30 μL of blood sampled each time), and then the blood plasma was separated for detecting the insulin level by ELISA, where the separated blood plasma was more than 10 μL; the next day (D29) at the end of administration was set as the test endpoint, and the mice were fasted for 6 h in the morning and subjected to fasting blood glucose level measurement; subsequently, the mice were euthanized with CO2, blood was collected from the heart of each mouse for analysis, and each group of mice was dissected; the liver and subcutaneous, epididymal and mesenteric fat was collected, photographed and weighed, respectively.

[2] = Example 1: body fat mass by MRI after 25 days
Description: as §1, §2, §3
After 25 days of administration, the body weight, the body fat mass and the body fat ratio of each animal in groups G1 to G6 were measured and averaged for each group, and the results are shown in Table 5 below, FIG. 4 and FIG. 5.

[3] = Example 1: liver, abdominal and subcutaneous fat weight after 28 days; conditions: mean, HTD1801 200 mpk, empagliflozin 10 mpk in last 2 weeks (300/15 mpk before)
Description: as §1, §2, §3
After 28 days of administration, the mice were euthanized with CO2 the next day, and the mice of groups G1 to G5 were dissected, and liver and abdominal fat (including epididymis and mesentery), and subcutaneous fat were collected, photographed and weighed, respectively, and the results are shown in Table 6 below, FIG. 6, FIG. 7, and FIG. 8.

[4] = Example 1: fasting blood glucose level; conditions: semaglutide 10 nmol/kg s.c. Q3D
Description: as §1, §2
For the combined administration group, the total administration volume was the sum of the administration volumes of two single drugs, and the administration sequence and the administration time were kept consistent at each administration. The mice were continuously fed with high-fat feed during the administration period until the administration was finished. […]
After 20 days of administration, fasting blood glucose level results were measured for each group of animals and are shown in Table 8 below and FIG. 11.

[5] = Example 1: oral glucose tolerance test (OGTT), blood glucose; conditions: HTD1801 200 mpk, empagliflozin 10 mpk (reduced after week 2), semaglutide 10 nmol/kg s.c. Q3D
Description: as §1, §2, §3

[6] = day 0 (baseline), HTD1801 300 mpk, empagliflozin 15 mpk gavage QD
[7] = day 1, HTD1801 300 mpk, empagliflozin 15 mpk gavage QD
[8] = day 2, HTD1801 300 mpk, empagliflozin 15 mpk gavage QD
[9] = day 3, HTD1801 300 mpk, empagliflozin 15 mpk gavage QD
[10] = day 4, HTD1801 300 mpk, empagliflozin 15 mpk gavage QD
[11] = day 5, HTD1801 300 mpk, empagliflozin 15 mpk gavage QD
[12] = day 6, HTD1801 300 mpk, empagliflozin 15 mpk gavage QD
[13] = day 7, HTD1801 300 mpk, empagliflozin 15 mpk gavage QD
[14] = day 8, HTD1801 300 mpk, empagliflozin 15 mpk gavage QD
[15] = day 9, HTD1801 300 mpk, empagliflozin 15 mpk gavage QD
[16] = day 10, HTD1801 300 mpk, empagliflozin 15 mpk gavage QD
[17] = day 11, HTD1801 300 mpk, empagliflozin 15 mpk gavage QD
[18] = day 12, HTD1801 300 mpk, empagliflozin 15 mpk gavage QD
[19] = day 13, HTD1801 300 mpk, empagliflozin 15 mpk gavage QD
[20] = day 14, HTD1801 300 mpk, empagliflozin 15 mpk gavage QD
[21] = day 15, HTD1801 200 mpk, empagliflozin 10 mpk (reduced after week 2) gavage QD
[22] = day 16, HTD1801 200 mpk, empagliflozin 10 mpk (reduced after week 2) gavage QD
[23] = day 17, HTD1801 200 mpk, empagliflozin 10 mpk (reduced after week 2) gavage QD
[24] = day 18, HTD1801 200 mpk, empagliflozin 10 mpk (reduced after week 2) gavage QD
[25] = day 19, HTD1801 200 mpk, empagliflozin 10 mpk (reduced after week 2) gavage QD
[26] = day 20, HTD1801 200 mpk, empagliflozin 10 mpk (reduced after week 2) gavage QD
[27] = day 21, HTD1801 200 mpk, empagliflozin 10 mpk (reduced after week 2) gavage QD
[28] = day 22, HTD1801 200 mpk, empagliflozin 10 mpk (reduced after week 2) gavage QD
[29] = day 23, HTD1801 200 mpk, empagliflozin 10 mpk (reduced after week 2) gavage QD
[30] = day 24, HTD1801 200 mpk, empagliflozin 10 mpk (reduced after week 2) gavage QD
[31] = day 25, HTD1801 200 mpk, empagliflozin 10 mpk (reduced after week 2) gavage QD
[32] = day 26, HTD1801 200 mpk, empagliflozin 10 mpk (reduced after week 2) gavage QD
[33] = day 27, HTD1801 200 mpk, empagliflozin 10 mpk (reduced after week 2) gavage QD
[34] = day 28, HTD1801 200 mpk, empagliflozin 10 mpk (reduced after week 2) gavage QD
[35] = mean, after 25 days of administration, HTD1801 200 mpk, empagliflozin 10 mpk in last 2 weeks (300/15 mpk before), semaglutide 10 nmol/kg s.c. Q3D

## COc1ccc2cc3[n+](cc2c1OC)CCc1cc2c(cc1-3)OCO2.C[C@H](CCC(=O)[O-])[C@H]1CC[C@H]2[C@@H]3[C@@H](O)C[C@@H]4C[C@H](O)CC[C@]4(C)[C@H]3CC[C@]12C [HTD1801, berberine ursodeoxycholate]
[1]; after 14 days, reduced dose: HTD1801 200 mpk, empagliflozin 10 mpk
  body weight change (in words): slight rebound
[1]; [6]
  Body weight (mean): 43.6 g
  Body weight change rate: 0.0%
[1]; [7]
  Body weight (mean): 42.9 g
  Body weight change rate: −1.6%
[1]; [8]
  Body weight (mean): 43.1 g
  Body weight change rate: −1.2%
[1]; [9]
  Body weight (mean): 42.3 g
  Body weight change rate: −3.0%
[1]; [10]
  Body weight (mean): 42.3 g
  Body weight change rate: −2.9%
[1]; [11]
  Body weight (mean): 42.5 g
  Body weight change rate: −2.6%
[1]; [12]
  Body weight (mean): 42.0 g
  Body weight change rate: −3.8%
[1]; [13]
  Body weight (mean): 41.5 g
  Body weight change rate: −4.9%
[1]; [14]
  Body weight (mean): 40.8 g
  Body weight change rate: −6.2%
[1]; [15]
  Body weight (mean): 40.7 g
  Body weight change rate: −6.6%
[1]; [16]
  Body weight (mean): 40.7 g
  Body weight change rate: −6.5%
[1]; [17]
  Body weight (mean): 40.6 g
  Body weight change rate: −6.8%
[1]; [18]
  Body weight (mean): 40.8 g
  Body weight change rate: −6.3%
[1]; [19]
  Body weight (mean): 40.4 g
  Body weight change rate: −7.1%
[1]; [20]
  Body weight (mean): 39.7 g
  Body weight change rate: −8.7%
[1]; [21]
  Body weight (mean): 39.5 g
  Body weight change rate: −9.0%
[1]; [22]
  Body weight (mean): 39.6 g
  Body weight change rate: −8.8%
[1]; [23]
  Body weight (mean): 39.4 g
  Body weight change rate: −9.3%
[1]; [24]
  Body weight (mean): 38.9 g
  Body weight change rate: −10.3%
[1]; [25]
  Body weight (mean): 38.9 g
  Body weight change rate: −10.3%
[1]; [26]
  Body weight (mean): 39.2 g
  Body weight change rate: −8.4%
[1]; [27]
  Body weight (mean): 39.5 g
  Body weight change rate: −7.8%
[1]; [28]
  Body weight (mean): 39.7 g
  Body weight change rate: −7.2%
[1]; [29]
  Body weight (mean): 40.2 g
  Body weight change rate: −6.0%
[1]; [30]
  Body weight (mean): 40.5 g
  Body weight change rate: −5.4%
[1]; [31]
  Body weight (mean): 40.7 g
  Body weight change rate: −4.8%
[1]; [32]
  Body weight (mean): 40.1 g
  Body weight change rate: −6.5%
[1]; [33]
  Body weight (mean): 40.2 g
  Body weight change rate: −6.2%
[1]; [34]
  Body weight (mean): 39.5 g
  Body weight change rate: −7.9%
[1]; within 14 days, HTD1801 300 mpk, empagliflozin 15 mpk gavage QD
  body weight change / weight loss effect (in words): continuously decreased over time
[2]; after 25 days, relative to control group G2
  body fat mass and body fat ratio (in words): decreased
[2]; mean, after 25 days of administration (Table 5), HTD1801 200 mpk, empagliflozin 10 mpk in last 2 weeks (300/15 mpk before), semaglutide 10 nmol/kg s.c. Q3D
  Body weight: 40.10 g
[2]; [35]
  Body fat ratio: 40.12%
  Fat (body fat mass): 16.23 g
[3]
  Epididymal fat weight: 2.31 g
  Liver weight: 0.98 g
  Mesenteric fat weight: 0.78 g
  Subcutaneous fat weight: 2.32 g
[4]; [12]
  Mean fasting blood glucose level: 7.9 mmol/L
[4]; day 20, HTD1801 200 mpk, empagliflozin 10 mpk (reduced after week 2)
  Mean fasting blood glucose level: 8.4 mmol/L
[5]; day 28, 0 min
  OGTT blood glucose level: 10.65 mmol/L
[5]; day 28, 15 min
  OGTT blood glucose level: 19.88 mmol/L
[5]; day 28, 30 min
  OGTT blood glucose level: 20.04 mmol/L
[5]; day 28, 60 min
  OGTT blood glucose level: 23.48 mmol/L
[5]; day 28, 90 min
  OGTT blood glucose level: 19.88 mmol/L
[5]; day 28, 120 min (head printed "12 0min")
  OGTT blood glucose level: 22.22 mmol/L
